Laboratory results reported in PubChem BioAssay AID248 (DTP/NCI, 2004).
Where “and” joins values, the source holds several entries; their conditions need not be identical. Equal values may be shown once. Toxic doses and inconclusive results are not listed. Cut-off read from the data, not from the text of the source: active = T/C of 150% or more; inactive = T/C below 125%.

System: L1210 leukemia ip in BDF1 mice, survival T/C
Assay: NCI In Vivo Anticancer Drug Screen. Data for tumor model L1210 Leukemia (intraperitoneal) in B6D2F1 (BDF1) mice
Conditions: endpoint: mean survival time, higher = longer survival
Procedure, shortened: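 Tumor cells were implanted, animals were treated, and survival was followed. The result divides the treated measurement by the vehicle-control measurement.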

[1] = dose: 100.0 mg/kg/injection, schedule: Q04DX003 (ip), vehicle: saline
[2] = dose: 200.0 mg/kg/injection, schedule: Q04DX003 (ip), vehicle: saline
[3] = dose: 100.0 mg/kg/injection, schedule: Q01DX009 (ip), vehicle: Klucel (hydroxypropylcellulose) (HPC)
[4] = dose: 200.0 mg/kg/injection, schedule: Q01DX009 (ip), vehicle: Klucel (hydroxypropylcellulose) (HPC)
[5] = dose: 100.0 mg/kg/injection, schedule: Q01DX001 (ip), vehicle: carboxymethylcellulose (CMC)
[6] = dose: 100.0 mg/kg/injection, schedule: Q04DX003 (ip), vehicle: Klucel (hydroxypropylcellulose) (HPC)
[7] = dose: 200.0 mg/kg/injection, schedule: Q01DX001 (ip), vehicle: carboxymethylcellulose (CMC)
[8] = dose: 200.0 mg/kg/injection, schedule: Q04DX003 (ip), vehicle: Klucel (hydroxypropylcellulose) (HPC)
[9] = dose: 400.0 mg/kg/injection, schedule: Q01DX001 (ip), vehicle: carboxymethylcellulose (CMC)
[10] = dose: 400.0 mg/kg/injection, schedule: Q04DX003 (ip), vehicle: Klucel (hydroxypropylcellulose) (HPC)
[11] = dose: 50.0 mg/kg/injection, schedule: Q01DX001 (ip), vehicle: saline
[12] = dose: 100.0 mg/kg/injection, schedule: Q01DX001 (ip), vehicle: saline
[13] = dose: 200.0 mg/kg/injection, schedule: Q01DX001 (ip), vehicle: saline
[14] = dose: 100.0 mg/kg/injection, schedule: Q01DX009 (ip), vehicle: saline with Tween-80
[15] = dose: 100.0 mg/kg/injection, schedule: Q04DX003 (ip), vehicle: saline with Tween-80
[16] = dose: 200.0 mg/kg/injection, schedule: Q01DX009 (ip), vehicle: saline with Tween-80
[17] = dose: 200.0 mg/kg/injection, schedule: Q04DX003 (ip), vehicle: saline with Tween-80
[18] = dose: 400.0 mg/kg/injection, schedule: Q01DX009 (ip), vehicle: saline with Tween-80
[19] = dose: 400.0 mg/kg/injection, schedule: Q04DX003 (ip), vehicle: saline with Tween-80
[20] = dose: 50.0 mg/kg/injection, schedule: Q01DX009 (ip), vehicle: Klucel (hydroxypropylcellulose) (HPC)
[21] = dose: 400.0 mg/kg/injection, schedule: Q01DX001 (ip), vehicle: saline

Measured: T/C

CCN(CC)CCOB(OCCN(CC)CC)OCCN(CC)CC
inactive: dose: 50.0 mg/kg/injection, schedule: Q01DX009 (ip), vehicle: saline 95 % of control and 101 % of control | dose: 50.0 mg/kg/injection, schedule: Q04DX003 (ip), vehicle: saline 96 % of control | dose: 100.0 mg/kg/injection, schedule: Q01DX009 (ip), vehicle: saline 101 % of control and 110 % of control | dose: 100.0 mg/kg/injection, schedule: Q04DX002 (ip), vehicle: saline 101 % of control and 106 % of control | [1] 96 % of control | dose: 200.0 mg/kg/injection, schedule: Q01DX009 (ip), vehicle: saline 97 % of control and 103 % of control | dose: 200.0 mg/kg/injection, schedule: Q04DX002 (ip), vehicle: saline 101 % of control and 103 % of control | [2] 100 % of control | dose: 400.0 mg/kg/injection, schedule: Q04DX002 (ip), vehicle: saline 95 % of control

CCOP(=S)(N1CCNCC1)N1CCNCC1
inactive: dose: 75.0 mg/kg/injection, schedule: Q01DX001 (ip), vehicle: saline 90 % of control | dose: 75.0 mg/kg/injection, schedule: Q01DX009 (ip), vehicle: Klucel (hydroxypropylcellulose) (HPC) 95 % of control | dose: 150.0 mg/kg/injection, schedule: Q01DX001 (ip), vehicle: saline 92 % of control | dose: 150.0 mg/kg/injection, schedule: Q01DX009 (ip), vehicle: Klucel (hydroxypropylcellulose) (HPC) 120 % of control | dose: 300.0 mg/kg/injection, schedule: Q01DX001 (ip), vehicle: saline 100 % of control

CCCCCCCNC(=S)NNC(=O)c1ccncc1
inactive: [3] 97 % of control | [4] 100 % of control | dose: 400.0 mg/kg/injection, schedule: Q01DX009 (ip), vehicle: Klucel (hydroxypropylcellulose) (HPC) 100 % of control

CCOC(=O)NC(N)=O
inactive: dose: 50.0 mg/kg/injection, schedule: Q01DX001 (ip), vehicle: carboxymethylcellulose (CMC) 92 % of control | dose: 75.0 mg/kg/injection, schedule: Q01DX009 (ip), vehicle: saline 100 % of control | [5] 97 % of control | [6] 110 % of control | [1] 107 % of control | dose: 150.0 mg/kg/injection, schedule: Q01DX009 (ip), vehicle: saline 103 % of control | [7] 95 % of control | [8] 98 % of control | [2] 98 % of control | dose: 300.0 mg/kg/injection, schedule: Q01DX009 (ip), vehicle: saline 100 % of control | [9] 92 % of control | [10] 98 % of control | dose: 400.0 mg/kg/injection, schedule: Q04DX003 (ip), vehicle: saline 102 % of control

CCCc1ccc(OCC(=O)O)c(OC)c1
inactive: dose: 75.0 mg/kg/injection, schedule: Q01DX001 (ip), vehicle: acetone 93 % of control | dose: 150.0 mg/kg/injection, schedule: Q01DX001 (ip), vehicle: acetone 92 % of control | dose: 300.0 mg/kg/injection, schedule: Q01DX001 (ip), vehicle: acetone 88 % of control

FC(F)(F)c1nc2ccccc2[nH]1
inactive: dose: 50.0 mg/kg/injection, schedule: Q04DX002 (ip), vehicle: Klucel (hydroxypropylcellulose) (HPC) 86 % of control | dose: 100.0 mg/kg/injection, schedule: Q04DX002 (ip), vehicle: Klucel (hydroxypropylcellulose) (HPC) 100 % of control | dose: 200.0 mg/kg/injection, schedule: Q04DX002 (ip), vehicle: Klucel (hydroxypropylcellulose) (HPC) 93 % of control

Cc1cnc2cccc(C)c2c1Cl
inactive: [11] 101 % of control | [12] 97 % of control | [13] 95 % of control

COC1(c2ccc(C(F)(F)F)cc2)OC1(C)C (centres undefined)
inactive: [14] 98 % of control | [15] 96 % of control | [16] 100 % of control | [17] 102 % of control | [18] 104 % of control | [19] 102 % of control

Cc1ccc(C(=O)NCCCOc2ccc(N)cc2Cl)cc1S(=O)(=O)F
inactive: dose: 50.0 mg/kg/injection, schedule: Q01DX009 (ip), vehicle: saline with Tween-80 104 % of control | [14] 95 % of control | [15] 103 % of control | [16] 90 % of control | [17] 94 % of control | [19] 105 % of control

Cc1ccc([I+]c2ccc(C)c(C)c2C)c(C)c1C
inactive: dose: 2.5 mg/kg/injection, schedule: Q01DX001 (ip), vehicle: acetone 100 % of control | dose: 5.0 mg/kg/injection, schedule: Q01DX001 (ip), vehicle: acetone 102 % of control | dose: 10.0 mg/kg/injection, schedule: Q01DX001 (ip), vehicle: acetone 96 % of control | dose: 22.0 mg/kg/injection, schedule: Q01DX001 (ip), vehicle: acetone 103 % of control

Cc1c(C)c2cc(Br)ccc2[nH]c1=O
inactive: dose: 100.0 mg/kg/injection, schedule: Q01DX001 (ip), vehicle: other 103 % of control | dose: 200.0 mg/kg/injection, schedule: Q01DX001 (ip), vehicle: other 97 % of control | dose: 400.0 mg/kg/injection, schedule: Q01DX001 (ip), vehicle: other 97 % of control

CC(C)C(CCN1CCCC1)(C(N)=O)c1cccc2ccccc12 (centres undefined)
inactive: [20] 112 % of control | [3] 105 % of control | [6] 98 % of control | [4] 112 % of control | [8] 95 % of control

CC(C)(C)N1CCC1C(=O)O (centres undefined)
inactive: [12] 92 % of control | [13] 97 % of control | [21] 97 % of control

CNC(=S)N/N=C/c1ccccn1
inactive: dose: 25.0 mg/kg/injection, schedule: Q04DX003 (ip), vehicle: Klucel (hydroxypropylcellulose) (HPC) 112 % of control | dose: 50.0 mg/kg/injection, schedule: Q04DX003 (ip), vehicle: Klucel (hydroxypropylcellulose) (HPC) 97 % of control | [6] 93 % of control | [8] 101 % of control

O/N=C/c1ccc(Cl)cc1
inactive: [11] 97 % of control | [12] 100 % of control | [13] 94 % of control

O/N=C1\c2cc(Cl)ccc2-c2c(Cl)cc(Cl)cc21
inactive: [5] 115 % of control | [7] 100 % of control | [9] 97 % of control

C(=N\Nc1nnn(Cc2ccccc2)n1)/c1ccccc1
inactive: [14] 95 % of control | [15] 110 % of control | [16] 102 % of control | [17] 102 % of control | [18] 93 % of control | [19] 90 % of control

CC1C=CC(C(N)C(=O)O)O1 (centres undefined)
inactive: [12] 103 % of control | [13] 95 % of control | [21] 101 % of control

O=C1NC(=O)C2(CCc3ccccc3C2)N1 (centres undefined)
inactive: [20] 96 % of control | [3] 96 % of control | [6] 100 % of control | dose: 100.0 mg/kg/injection, schedule: Q04DX003 (ip), vehicle: acetone 96 % of control | [4] 93 % of control | [8] 97 % of control | dose: 200.0 mg/kg/injection, schedule: Q04DX003 (ip), vehicle: acetone 95 % of control | [10] 97 % of control | dose: 400.0 mg/kg/injection, schedule: Q04DX003 (ip), vehicle: acetone 95 % of control
